Laboratory results published in patent US4598065A, “Use of peptides as medicaments and certain novel peptides” (Novo Industri A/S, priority 1980, dated 1986).

Columns and labels:
[1] = test system: NMRI mice; assay: Acute toxicity study in NMRI mice; assay type: in vivo; settings: 10 mg i.v. bolus, NMRI mice 20 g (500 mg/kg body weight)
[2] = test system: electrically stimulated guinea pig ileum; assay: Contractions of the electrically stimulated guinea pig ileum in vitro; assay type: cell-based
Text: 10^-5 M glucagon caused 83±4% (X±sd, N=3) ihibition compared to 78±5% for glucagon1-21. The effects of 10^-6 M was 50±3% and 52±5%, respectively, and of 10^-7 M: 27±3% for either peptide.

[3] = test system: intestinal motility in rabbits; assay: Intestinal motility in anaesthetized rabbits in vivo (spasmolytic effect, balloon in jejunum); design: species or system rabbit; settings: for spasmolytic effect: Experiment B, rabbit 2.32 kg
Description: One male rabbit weighing 2.56 kg was anaesthetized with nembutal after an overnight fast. The position of the balloon used for measurement of intestinal motility was 1 meter from pylorus in the jejunum. The motility was registered before and after intraveneous administration of 77 μg glucagon1-21 in 1 ml 0.9% saline containing 0.1% human serum albumin. […] The onset of effect was 1 minute after the administration and the duration of effect was 11 minutes.
A male rabbit weighing 2.32 kg was treated as described in Experiment A with the following dosages: […]

[4] = test system: isolated perfused rat pancreas; assay: Insulin release from the isolated perfused rat pancreas; assay type: cell-based; settings: infused to the same concentration as glucagon
[5] = test system: pentagastrin stimulated gastric acid secretion in gastric fistula cats; assay: Pentagastrin stimulated gastric acid secretion in cats with chronic gastric fistulas; assay type: in vivo, cat
Description: 1 μg/kg pentagastrin subcutaneously administered to gastric fistula cats caused an increase in gastic acid secretion of 856±71 μEq (Eq designates equivalent) acid (X±S.E.M., N=18). When 2 μg/kg glucagon1-21 was administered subcutaneously at the same time as 1 μg/kg pentagastrin the increase in acid output was only 417±104 μEq acid (N=6).
In a male cat weighing approx. 4.5 kg equipped with a cronic gastric fistula the gastric acid secretion was stimulated with 4.5 μg pentagastrin (Peptavlon®) in a volume of 1 ml 0.9% saline containing 0.1% human serum albumin subcutaneously in the neck. In 8 experiments 1 ml placebo (0.9% saline with 0.1% human serum albumin) was administered subcutaneously through another cannula in the neck at the same time as the administration of pentagastrin. In 2 experiments 9 μg of glucagon1-21 in 1 ml of the above solution was administered simultaneously with the administration of pentagastrin. Gastric acid secretion was collected over periods of 15 minutes and titrated with 0.01N NaOH. The increase in acid secretion after the administration of pentagastrin was calculated as μEq acid excreted over 11/2 hrs. after the administration subtracting the basal acid secretion before administration of pentagastrin. After administration of 4.5 μg pentagastrin plus placebo the increase in gastric acid secretion was 729± 89 μEq acid (X±S.E.M., N=8). […]

[6] = test system: rabbit gall bladder preparation; assay: Relaxation of submaximally contracted rabbit gall bladder preparation in vitro; assay type: cell-based
[7] = test system: gall flow in rats; assay: Gall flow in rats in vivo; design: species or system rat
[8] = test system: bile flow in rabbits; assay: Bile flow in rabbits with catheters in the bile duct; assay type: in vivo, rabbit; settings: for Amount of bile: 200 μg s.c. given after 45 minutes
Description: One rex rabbit weighing 2.0 kg was equipped with a catheter in the bile duct during nembutal anaesthesia on the day before the experiment. On the day of the experiment the bile was collected for periods of 15 minutes.
After 45 minutes 200 μg glucagon was administered subcutaneously in 1 ml of 0.9% saline containing 0.1% human serum albumin. After 120 minutes 154 μg glucagon1-21 was administered subcutaneously in 1 ml of the above solution. After 195 minutes the placebo (vide Experiment C) was administered.

[9] = test system: rat free fat cells; assay: Lipolytic effect on rat free fat cells in vitro; assay type: cell-based
[10] = test system: adenylate cyclase; settings: in vitro
Text: The metabolic effects of glucagon1-21, glucagon1-26 and des(22-26)-glucagon, as exemplified by their lipolytic effect on rat free fat cells in vitro and their effect on the activation of the adenylate cyclase in vitro, are negligible compared with the metabolic effects of glucagon.

[11] = test system: rats; assay: Metabolic effects (hyperglycemia, insulin release) after administration to rats in vivo; design: species or system rat
[12] = i.v. bolus, 100 to 200 μg glucagon or 77 to 154 μg glucagon1-21, anesthetized rabbits 2.5 to 3.0 kg

CC(C)C[C@H](NC(=O)[C@H](Cc1ccc(O)cc1)NC(=O)[C@H](CCCCN)NC(=O)[C@H](CO)NC(=O)[C@H](Cc1ccc(O)cc1)NC(=O)[C@H](CC(=O)O)NC(=O)[C@H](CO)NC(=O)[C@@H](NC(=O)[C@H](Cc1ccccc1)NC(=O)[C@@H](NC(=O)CNC(=O)[C@H](CCC(N)=O)NC(=O)[C@H](CO)NC(=O)[C@@H](N)Cc1c[nH]cn1)[C@@H](C)O)[C@@H](C)O)C(=O)N[C@@H](CC(=O)O)C(=O)N[C@@H](CO)C(=O)N[C@@H](CCCNC(=N)N)C(=O)N[C@@H](CCCNC(=N)N)C(=O)N[C@@H](C)C(=O)N[C@@H](CCC(N)=O)C(=O)N[C@@H](CC(=O)O)C(=O)O [glucagon1-21, glucagon-(1-21)-heneicosapeptide]
deaths [1]: No deaths occurred

glucagon
inhibition of contraction amplitude ([2]; 10^-5 M, X±sd, N=3): 83±4% | inhibition of contraction amplitude ([2]; 10^-6 M): 50±3% | inhibition of contraction amplitude ([2]; 10^-7 M): 27±3% | spasmolytic effect ([3]; 200 μg i.v.): no detectable effect | spasmolytic effect ([3]; 400 μg): distinct effect | duration of inhibition of intestinal motility [3, 12]: about ten | onset of inhibition of intestinal motility after administration [3, 12]: one | insulin release [4]: releases insulin | effect on pentagastrin stimulated gastric acid secretion [5]: inhibit pentagastrin stimulated gastric acid secretion | relaxation of gall bladder strip ([6]; 10^-6 M, strip contracted with 0.1 μg/ml cholecystochinin octapeptide): 39% | ED50 (relaxation of gall bladder strip) ([6]; strip contracted with 0.1 μg/ml cholecystochinin octapeptide): 2700 nM | relaxing effect on gall bladder preparation, relative potency ([6]; submaximally contracted rabbit gall bladder preparation in vitro): almost equipotent | effect on gall flow [7]: increase in gall flow | gall flow immediately after the administration ([8]; rabbits with catheters in the bile duct): decrease in gall flow | subsequent bile flow ([8]; rabbits with catheters in the bile duct, after the initial decrease): increase in bile flow to quantities higher than before the administration | Amount of bile ([8]; sampling period 45-60 minutes, one rex rabbit 2.0 kg): 0.20 mL | Amount of bile ([8]; sampling period 60-75 minutes): 0.25 mL | Amount of bile ([8]; sampling period 75-90 minutes): 3.30 mL | Amount of bile ([8]; sampling period 90-105 minutes): 2.80 mL | Amount of bile ([8]; sampling period 105-120 minutes): 2.00 mL

CC(C)C[C@H](NC(=O)[C@H](Cc1c[nH]c2ccccc12)NC(=O)[C@H](CCC(N)=O)NC(=O)[C@@H](NC(=O)[C@H](Cc1ccccc1)NC(=O)[C@H](CC(=O)O)NC(=O)[C@H](CCC(N)=O)NC(=O)[C@H](C)NC(=O)[C@H](CCCNC(=N)N)NC(=O)[C@H](CCCNC(=N)N)NC(=O)[C@H](CO)NC(=O)[C@H](CC(=O)O)NC(=O)[C@H](CC(C)C)NC(=O)[C@H](Cc1ccc(O)cc1)NC(=O)[C@H](CCCCN)NC(=O)[C@H](CO)NC(=O)[C@H](Cc1ccc(O)cc1)NC(=O)[C@H](CC(=O)O)NC(=O)[C@H](CO)NC(=O)[C@@H](NC(=O)[C@H](Cc1ccccc1)NC(=O)[C@@H](NC(=O)CNC(=O)[C@H](CCC(N)=O)NC(=O)[C@H](CO)NC(=O)[C@@H](N)Cc1c[nH]cn1)[C@@H](C)O)[C@@H](C)O)C(C)C)C(=O)O [glucagon1-26, glucagon-(1-26)-hexacosapeptide]
inhibitory effect on the amplitude of the contractions, potency compared with glucagon ([2]; electrically stimulated guinea pig ileum in vitro): almost the same potency as glucagon | lipolytic effect (metabolic effect) compared with glucagon [9]: negligible | effect on the activation of the adenylate cyclase (metabolic effect) compared with glucagon [10]: negligible | metabolic effects after administration in vivo [11]: No metabolic effects
